Read-outs that look alike come from different tables or passages of the source.
Molecular target: recombinant human NK3 receptor (Homo sapiens (Human), UniProt P29371)
Test: biochemical
Format: binding
[1] = read-out: Data Ki (hNK-3 receptor affinity)
[2] = [3H]SR142801, membranes of HEK293 cells transiently expressing recombinant human NK3 receptor, read-out: Data Ki (hNK-3 receptor affinity)

Chain of recombinant human NK3 receptor (P29371 whole entry): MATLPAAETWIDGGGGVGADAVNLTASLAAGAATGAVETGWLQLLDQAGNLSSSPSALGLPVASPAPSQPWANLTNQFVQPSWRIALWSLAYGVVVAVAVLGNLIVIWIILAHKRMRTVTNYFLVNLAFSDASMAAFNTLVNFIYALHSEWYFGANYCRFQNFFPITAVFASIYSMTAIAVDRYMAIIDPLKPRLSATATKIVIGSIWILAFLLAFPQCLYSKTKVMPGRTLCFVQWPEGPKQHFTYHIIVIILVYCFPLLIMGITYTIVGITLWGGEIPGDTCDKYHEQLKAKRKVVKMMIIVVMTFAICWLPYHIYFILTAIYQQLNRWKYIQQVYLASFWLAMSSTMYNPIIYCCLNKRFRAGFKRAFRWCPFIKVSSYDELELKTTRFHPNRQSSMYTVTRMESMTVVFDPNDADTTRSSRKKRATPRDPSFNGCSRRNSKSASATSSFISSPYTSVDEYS

| SMILES | Ki [2] [nM] | also measured |
| --- | --- | --- |
| CCN(C(=O)Oc1ccc(F)cc1)[C@@H]1CN(C(=O)C2CCN(C(=O)C3CC(F)C3)CC2)C[C@H]1c1ccc(Cl)cc1 (stereo partly drawn) [Example 89, {(3S,4R)-4-(4-Chloro-phenyl)-1-[1-(3-fluoro-cyclobutanecarbonyl)-piperidine-4-carbonyl]-pyrrolidin-3-yl}-ethyl-carbamic acid 4-fluoro-phenyl ester] |  | Ki [1]: 3.3 nM |
| CCN(C(=O)Oc1ccc(F)cc1)[C@@H]1CN(C(=O)C2CCN(C(=O)C3CC(F)(F)C3)CC2)C[C@H]1c1ccc(Cl)cc1 [Example 90, {(3S,4R)-4-(4-Chloro-phenyl)-1-[1-(3,3-difluoro-cyclobutanecarbonyl)-piperidine-4-carbonyl]-pyrrolidin-3-yl}-ethyl-carbamic acid 4-fluoro-phenyl ester] | 2.4 |  |
| CCN(C(=O)Oc1ccc(F)cc1)[C@@H]1CN(C(=O)C2CCN(C(=O)C3CC(OC)C3)CC2)C[C@H]1c1ccc(Cl)cc1 (stereo partly drawn) [Example 91, {(3S,4R)-4-(4-Chloro-phenyl)-1-[1-(3-methoxy-cyclobutanecarbonyl)-piperidine-4-carbonyl]-pyrrolidin-3-yl}-ethyl-carbamic acid 4-fluoro-phenyl ester] | 6.5 |  |
| CCN(C(=O)Oc1ccc(F)cc1)[C@@H]1CN(C(=O)C2CCN(C(=O)C3(C(F)(F)F)CCC3)CC2)C[C@H]1c1ccc(Cl)cc1 [Example 92, {(3S,4R)-4-(4-Chloro-phenyl)-1-[1-(1-trifluoromethyl-cyclobutanecarbonyl)-piperidine-4-carbonyl]-pyrrolidin-3-yl}-ethyl-carbamic acid 4-fluoro-phenyl ester] | 6.6 |  |
| CCN(C(=O)Oc1ccc(F)cc1)[C@@H]1CN(C(=O)C2CCN(C(=O)CC#N)CC2)C[C@H]1c1ccc(Cl)cc1 [Example 93, {(3S,4R)-4-(4-Chloro-phenyl)-1-[1-(2-cyano-acetyl)-piperidine-4-carbonyl]-pyrrolidin-3-yl}-ethyl-carbamic acid 4-fluoro-phenyl ester] | 7.1 |  |
| CCN(C(=O)Oc1ccc(F)cc1)[C@@H]1CN(C(=O)C2CCN(C(=O)C3(C#N)CC3)CC2)C[C@H]1c1ccc(Cl)cc1 [Example 94, {(3S,4R)-4-(4-Chloro-phenyl)-1-[1-(1-cyano-cyclopropanecarbonyl)-piperidine-4-carbonyl]-pyrrolidin-3-yl}-ethyl-carbamic acid 4-fluoro-phenyl ester] | 7.8 |  |
| CCN(C(=O)Oc1ccc(F)cc1)[C@@H]1CN(C(=O)C2CCN(C(=O)C3(C(F)(F)F)CC3)CC2)C[C@H]1c1ccc(Cl)cc1 [Example 95, {(3S,4R)-4-(4-Chloro-phenyl)-1-[1-(1-trifluoromethyl-cyclopropanecarbonyl)-piperidine-4-carbonyl]-pyrrolidin-3-yl}-ethyl-carbamic acid 4-fluoro-phenyl ester] | 6.1 |  |
| CCN(C(=O)Oc1ccc(F)cc1)[C@@H]1CN(C(=O)C2CCN(C(=O)C3CC3(F)F)CC2)C[C@H]1c1ccc(Cl)cc1 (stereo partly drawn) [Example 96, {(3S,4R)-4-(4-Chloro-phenyl)-1-[1-(2,2-difluoro-cyclopropanecarbonyl)-piperidine-4-carbonyl]-pyrrolidin-3-yl}-ethyl-carbamic acid 4-fluoro-phenyl ester] | 3.4 |  |
| CCN(C(=O)Oc1ccc(F)cc1)[C@@H]1CN(C(=O)C2CCN(C(=O)C3CCOCC3)CC2)C[C@H]1c1ccc(Cl)cc1 [Example 97, {(3S,4R)-4-(4-Chloro-phenyl)-1-[1-(tetrahydro-pyran-4-carbonyl)-piperidine-4-carbonyl]-pyrrolidin-3-yl}-ethyl-carbamic acid 4-fluoro-phenyl ester] | 4.4 |  |
| CCN(C(=O)Oc1ccc(F)cc1)[C@@H]1CN(C(=O)C2CCN(C(=O)C3CCOC(C)(C)C3)CC2)C[C@H]1c1ccc(Cl)cc1 (stereo partly drawn) [Example 98, {(3S,4R)-4-(4-Chloro-phenyl)-1-[1-(2,2-dimethyl-tetrahydro-pyran-4-carbonyl)-piperidine-4-carbonyl]-pyrrolidin-3-yl}-ethyl-carbamic acid 4-fluoro-phenyl ester] | 4.7 |  |
| CCN(C(=O)Oc1ccc(F)cc1)[C@@H]1CN(C(=O)C2CCN(C(=O)C3(COC)CC3)CC2)C[C@H]1c1ccc(Cl)cc1 [Example 99, {(3S,4R)-4-(4-Chloro-phenyl)-1-[1-(1-methoxymethyl-cyclopropanecarbonyl)-piperidine-4-carbonyl]-pyrrolidin-3-yl}-ethyl-carbamic acid 4-fluoro-phenyl ester] |  | Ki [1]: 4.7 nM |
| CCN(C(=O)Oc1ccc(F)cc1)[C@@H]1CN(C(=O)C2CCN(C(=O)C3CC3(C)C)CC2)C[C@H]1c1ccc(Cl)cc1 (stereo partly drawn) [Example 100, {(3S,4R)-4-(4-Chloro-phenyl)-1-[1-(2,2-dimethyl-cyclopropanecarbonyl)-piperidine-4-carbonyl]-pyrrolidin-3-yl}-ethyl-carbamic acid 4-fluoro-phenyl ester] | 3.6 |  |
| CCN(C(=O)Oc1ccc(F)cc1)[C@@H]1CN(C(=O)C2CCN(C(=O)c3ccc(C(F)(F)F)cn3)CC2)C[C@H]1c1ccc(Cl)cc1 [Example 101, {(3S,4R)-4-(4-Chloro-phenyl)-1-[1-(5-trifluoromethyl-pyridine-2-carbonyl)-piperidine-4-carbonyl]-pyrrolidin-3-yl}-ethyl-carbamic acid 4-fluoro-phenyl ester] | 42.5 |  |
| CCN(C(=O)Oc1ccc(F)cc1)[C@@H]1CN(C(=O)C2CCN(C(=O)c3ccc(F)cn3)CC2)C[C@H]1c1ccc(Cl)cc1 [Example 102, {(3S,4R)-4-(4-Chloro-phenyl)-1-[1-(5-fluoro-pyridine-2-carbonyl)-piperidine-4-carbonyl]-pyrrolidin-3-yl}-ethyl-carbamic acid 4-fluoro-phenyl ester] | 8.2 |  |
| CCN(C(=O)Oc1ccc(F)cc1)[C@@H]1CN(C(=O)C2CCN(C(=O)C3CCC(=O)NC3)CC2)C[C@H]1c1ccc(Cl)cc1 (stereo partly drawn) [Example 103, {(3S,4R)-4-(4-Chloro-phenyl)-1-[1-(6-oxo-piperidine-3-carbonyl)-piperidine-4-carbonyl]-pyrrolidin-3-yl}-ethyl-carbamic acid 4-fluoro-phenyl ester] |  | Ki [1]: 32.6 nM |
| CCN(C(=O)Oc1ccc(F)cc1)[C@@H]1CN(C(=O)C2CCN(C(=O)C3CCC(=O)N(C(C)C)C3)CC2)C[C@H]1c1ccc(Cl)cc1 (stereo partly drawn) [Example 104, {(3S,4R)-4-(4-Chloro-phenyl)-1-[1-(1-isopropyl-6-oxo-piperidine-3-carbonyl)-piperidine-4-carbonyl]-pyrrolidin-3-yl}-ethyl-carbamic acid 4-fluoro-phenyl ester] |  | Ki [1]: 17.6 nM |
| CCN(C(=O)Oc1ccc(F)cc1)[C@@H]1CN(C(=O)C2CCC(=O)N(C(C)C)C2)C[C@H]1c1ccc(Cl)c(F)c1 (stereo partly drawn) [Example 105, [(3S,4R)-4-(4-Chloro-3-fluoro-phenyl)-1-(1-isopropyl-6-oxo-piperidine-3-carbonyl)-pyrrolidin-3-yl]-ethyl-carbamic acid 4-fluoro-phenyl ester] | 31.2 |  |
| CCN(C(=O)Oc1ccc(F)cc1)[C@@H]1CN(C(=O)C2CCN(C(=O)[C@@H]3CC(=O)N3)CC2)C[C@H]1c1ccc(F)c(F)c1 [Example 106, {(3S,4R)-4-(3,4-Difluoro-phenyl)-1-[1-((S)-4-oxo-azetidine-2-carbonyl)-piperidine-4-carbonyl]-pyrrolidin-3-yl}-ethyl-carbamic acid 4-fluoro-phenyl ester] | 66 |  |
| CCN(C(=O)Oc1ccc(F)cc1)[C@@H]1CN(C(=O)C2CCN(C(=O)C3CCC(=O)NC3)CC2)C[C@H]1c1ccc(F)c(F)c1 (stereo partly drawn) [Example 107, {(3S,4R)-4-(3,4-Difluoro-phenyl)-1-[1-(6-oxo-piperidine-3-carbonyl)-piperidine-4-carbonyl]-pyrrolidin-3-yl}-ethyl-carbamic acid 4-fluoro-phenyl ester] | 131 |  |
| CCN(C(=O)Oc1ccc(F)cc1)[C@@H]1CN(C(=O)C2CCN(c3ccc(C(C)O)cn3)CC2)C[C@H]1c1ccc(Cl)cc1 (stereo partly drawn) [Example 108, {(3S,4R)-4-(4-Chloro-phenyl)-1-[5′-(1-hydroxy-ethyl)-3,4,5,6-tetrahydro-2H-[1,2]bipyridinyl-4-carbonyl]-pyrrolidin-3-yl}-ethyl-carbamic acid 4-fluoro-phenyl ester] |  | Ki [1]: 4.7 nM |
| CCN(C(=O)Oc1ccc(F)cc1)[C@@H]1CN(C(=O)C2CCN(c3ccc(C(N)=O)cn3)CC2)C[C@H]1c1ccc(Cl)c(F)c1 [Example 109, [(3S,4R)-1-(5′-Carbamoyl-3,4,5,6-tetrahydro-2H-[1,2′]bipyridinyl-4-carbonyl)-4-(4-chloro-3-fluoro-phenyl)-pyrrolidin-3-yl]-ethyl-carbamic acid 4-fluoro-phenyl ester] |  | Ki: 1.7 nM |
| CCN(C(=O)Oc1ccc(F)cc1)[C@@H]1CN(C(=O)C2CCN(c3ccc(Cl)cn3)CC2)C[C@H]1c1ccc(Cl)cc1 [Example 110, [(3S,4R)-4-(4-Chloro-phenyl)-1-(5′-chloro-3,4,5,6-tetrahydro-2H-[1,2′]bipyridinyl-4-carbonyl)-pyrrolidin-3-yl]-ethyl-carbamic acid 4-fluoro-phenyl ester] | 4.8 |  |
| CCN(C(=O)Oc1ccc(F)cc1)[C@@H]1CN(C(=O)C2CCN(c3ccc(C(N)=O)cn3)CC2)C[C@H]1c1ccc(Cl)cc1 [Example 111, [(3S,4R)-1-(5′-Carbamoyl-3,4,5,6-tetrahydro-2H-[1,2′]bipyridinyl-4-carbonyl)-4-(4-chloro-phenyl)-pyrrolidin-3-yl]-ethyl-carbamic acid 4-fluoro-phenyl ester] | 7.4 |  |
| CCN(C(=O)Oc1ccc(F)cc1)[C@@H]1CN(C(=O)C2CCN(c3ccc(F)cn3)CC2)C[C@H]1c1ccc(Cl)c(Cl)c1 [Example 112, [(3S,4R)-4-(3,4-Dichloro-phenyl)-1-(5′-fluoro-3,4,5,6-tetrahydro-2H-[1,2′]bipyridinyl-4-carbonyl)-pyrrolidin-3-yl]-ethyl-carbamic acid 4-fluoro-phenyl ester] |  | Ki [1]: 0.8 nM |
| CCN(C(=O)Oc1ccc(F)cc1)[C@@H]1CN(C(=O)C2CCN(c3ccc(Cl)cn3)CC2)C[C@H]1c1ccc(Cl)c(Cl)c1 [Example 113, [(3S,4R)-1-(5′-Chloro-3,4,5,6-tetrahydro-2H-[1,2′]bipyridinyl-4-carbonyl)-4-(3,4-dichloro-phenyl)-pyrrolidin-3-yl]-ethyl-carbamic acid 4-fluoro-phenyl ester] | 0.5 |  |

From patent US9346786B2, “Pyrrolidine compounds” (Hoffmann-La Roche Inc., priority 2009, dated 2016)
